≈ marks a conversion by molar mass, not a printed value. Values belong to the compound of their own block, whether it stands above or below them.
Legend:
Type in all cases: physicochemical
[1] = Initial formulations: Compound A saturation assay (HPLC) and appearance in template emulsion vehicles; conditions: emulsion composition containing ≥10% egg lecithin, aqueous with cosolvent or surfactant or cyclodextrin, thermodynamic from solid
Experimental: Ten compositions were prepared using various template compositions, containing lecithin, soybean oil (SBO) or medium chain triglycerides (MCT), glycerin or sucrose (non-ionic tonicity agent), edetate disodium di-hydrate (EDTA, chelating agent) in deionized water. Compound A (Form A) was added and agitated to reach solubility equilibrium at ambient room temperature. Each formulation was prepared in the following steps: Compound A (5 mg) was dispersed in each template vehicle. The formulation were then homogenized and at room temperature for >24 h and then passed sample through 0.45 μm filter for analysis (HPLC).

[2] = Stability of Formulation F-9 (small scale), 2 weeks at 2-8° C. and 25° C.; conditions: F-9 emulsion, after 2 weeks at 2-8° C. and 25° C.
Experimental: Procedures: Compound A (Form A) was added to F-9 vehicle containing MCT/Egg/lecithin/Sucrose/EDTA in a plastic tube. The formulation was mixed until uniform and complete drug dissolution. The emulsion was sterilized through 0.2 μm membrane filter. The samples were placed at 2-8° C. and 25° C. for stability evaluation for 2 weeks. The samples were tested for appearance, pH, Compound A assay and purity by HPLC, mean droplet size and globule size distribution in lipid injectable emulsions (USP<729>) and the results are shown in Table 17.

[3] = Emulsion stability 1 week at 40° C. (appearance, assay, Z-Ave, PFAT5); conditions: emulsions at 2-8° C. and after 8 days at 40° C.
Experimental: Procedure: • Prepared all vehicles by mixing lipid and aqueous phase ingredients and homogenized. • Added Compound A (Form A) at 0.3% concentration in each vehicle. • Homogenized and mixed overnight until uniform or achieved equilibrium. • Filtered emulsion through 0.45 μm Nylon membrane filter. • Evaluated appearance, drug concentration by HPLC assay, average droplet size and PFAT5. • Selected the top 5-10 formulations achieving acceptance criteria initially. • Placed at 40° C. for up to 2 weeks to monitor emulsion stability. • Selected the top 3-5 formulations meeting the proposed requirements after 1-2 weeks at 40° C.
Methods: • Appearance: Record visual observation • Z-ave (nm): Measure mean oil droplet size by ZetaSizer (Malvern Instrument). Dilute 50 μL sample with 950 μL DI water at room temperature • Assay (%): Use the current HPLC method • Spin-X: Pass 0.5 mL emulsion through CoStar® Spin-X 0.2 μm Nylon filter (0.7 cm^2 surface area) at 3,144 G-force centrifuge for 60 sec at ambient room temperature. Evaluate completeness of emulsion passing through the filter.

[4] = Solubility of Compound A in F57, Method 6: Form B seeds added to GMP batch; conditions: F57 emulsion (GMP batch), 2 °C, thermodynamic from solid; 2-8° C.; read-out: API solubility in F57
Excerpt: (§1) To investigate the causes of precipitation and determine the Compound A solubility in F57 vehicle, the following seven (7) methods were applied to accurately determine solubility of Compound A in F57: • Method 1: Formulate Compound A in F57 at varied concentrations using GMP grade of Compound A and excipients with the regular process • Method 2: Formulate Compound A in F57 by introducing Compound A into a pre-formed F57 vehicle • Method 3: Observe Compound A in the previously made batches which already had extended incubation • Method 4: Conduct “top-down” and a “bottom-up” solubility studies in F57 vehicle • Method 5: Agitate Compound A GMP batch of F57 to promote the dissolution-precipitation equilibrium • Method 6: Add extra Form B seeds to Compound A GMP batch of F57 to promote Compound A crystal growth and precipitation • Method 7: Add Form B seeds to the samples made in method 1 to promote Compound A crystal growth and precipitation
For solubility determination, a F57 sample (usually about 0.5 mL) was filtered through a 0.22 μm centrifuge filter (Costar Spin-X®+, P/N8169), the filtrate (free of any solid particle) was collected, diluted with isopropanol, and tested for Compound A concentration using the following HPLC method. […]

[5] = Solubility of Compound A in F57, summary of all 7 methods
Excerpt: The term “solubility” used herein is defined as Compound A concentration where Compound A has reached a dissolution-precipitation equilibrium in F57 at a selected temperature. […] On the other hand, if Compound A concentration is higher than the solubility, Compound A is expected to precipitate over time.
as §1
(§2) For solubility determination, a F57 sample (usually about 0.5 mL) was filtered through a 0.22 μm centrifuge filter (Costar Spin-X®+, P/N8169), the filtrate (free of any solid particle) was collected, diluted with isopropanol, and tested for Compound A concentration using the following HPLC method. Dissolution-precipitation equilibrium is reached once the measured filtrate concentration is constant, and that concentration can be regarded as the solubility.
Table 40 summarizes the general conditions used in the seven methods to promote the dissolution-precipitation equilibrium. Detailed procedures are described in each method section.
The general observation and findings by all 7 methods are summarized in the table 50, according to the detailed observation and discussion pertaining to each method.

[6] = Solubility of Compound A in F57, Method 4: top-down method; conditions: for concentration in F57 vehicle: Method 4 top-down, 2-8° C.; for strength dissolved into F57 vehicle: top-down approach; for concentration on storage: top-down, after 4 weeks' storage at 2-8° C.
Experimental: as §2
The top-down method used high-energy homogenization to dissolve a set amount of Compound A (Form A) in the F57 vehicle to achieve supersaturation, allowing precipitation to take place over time to reach a dissolution-precipitation equilibrium in F57. The solubility of Compound A in the F57 vehicle was then determined.
(§3) The bottom-up method used a gentle mixing to slowly dissolve Compound A (Form A) in the F57 vehicle to reach the dissolution-precipitation equilibrium in F57. The solubility of Compound A in the F57 vehicle was then determined. • Top-down method: Add form A and B API, each into a separate tube containing the F57 vehicle, then apply extensive energy to each tube by homogenizer (BB, 600 sec) to obtain a clear solution, and store each tube at 2-8° C. • Bottom-up method: Add form A and B API, each into a separate tube containing the F57 vehicle, then gently shake each tube on a platform shaker at 2-8° C. • Pull sample aliquots at 1 day, 2 days, 1 week and 4 weeks to test for appearance and concentration.

[7] = Solubility of Compound A in F57, Method 4: bottom-up method; conditions: 2-8° C.; for concentration in F57 vehicle: Method 4 bottom-up
Experimental: as §2, §3

[8] = as above; conditions: for concentration in F57 vehicle: Method 4 bottom-up
[9] = DVS isotherm (hygroscopicity) of Form A
Excerpt: The crystal size of Form A is in the range of ˜few μm to about 50 μm.

[10] = Solubility estimation of freebase Form A in 20 solvents at RT
Experimental: The solubility of N-(5-(6-chloro-2,2-difluorobenzo[d][1,3]dioxol-5-yl)pyrazin-2-yl)-2-fluoro-6-methylbenzamide freebase Form A was determined in 20 solvents at RT. These experiments were conducted by adding approximately 2 mg of sample into a 3-mL glass vial. Solvents in Table 14 were then added in 50 μL increments into the vials until the solids were dissolved or a total volume of 2 mL was reached. The solubility estimation was used to guide the solvent selection in polymorph screening. N-(5-(6-chloro-2,2-difluorobenzo[d][1,3]dioxol-5-yl)pyrazin-2-yl)-2-fluoro-6-methylbenzamide freebase Form A is soluble in MeOH, Acetic acid, Acetonitrile, Acetone, MIBK, EtOAc, IPAc, MTBE, THF, 2-MeTHF, 1,4-Dioxane, NMP, DMSO, DCM, Toluene and DMAc (>18.0 mg/mL), while it is insoluble in Heptane and H2O (<1.3 mg/mL).

solubility [1]: ≥ 2400 µg/mL
appearance and HPLC assay on stability [2]: remained unchanged
% purity on stability [3]: 99.9%
solubility [4]: 1800 to 1900 µg/mL (≈ 4.27 to 4.5 mM)
solubility ([5]; F57, thermodynamic from solid, in F57, Method 2, Equilibrium reached, read-out: Measured Solubility): 1800 to 1900 µg/mL (≈ 4.27 to 4.5 mM)
solubility ([5]; F57, thermodynamic from solid, in F57, Method 4, Equilibrium reached, read-out: Measured Solubility): 1800 µg/mL (≈ 4.27 mM)
solubility ([5]; F57, thermodynamic from solid, in F57, Method 5, Equilibrium reached, read-out: Measured Solubility): 1800 to 1900 µg/mL (≈ 4.27 to 4.5 mM)
solubility ([5]; F57, thermodynamic from solid, in F57, Method 6, Equilibrium reached, read-out: Measured Solubility): 1800 to 1900 µg/mL (≈ 4.27 to 4.5 mM)
solubility ([5]; F57, thermodynamic from solid, in F57, Method 7, Equilibrium reached, read-out: Measured Solubility): 1800 to 1900 µg/mL (≈ 4.27 to 4.5 mM)
Compound: Cc1cccc(F)c1C(=O)Nc1cnc(-c2cc3c(cc2Cl)OC(F)(F)O3)cn1 [Compound A, N-(5-(6-chloro-2,2-difluorobenzo[d][1,3]dioxol-5-yl)pyrazin-2-yl)-2-fluoro-6-methylbenzamide]

concentration in F57 vehicle ([6]; 1 wk): 2970 µg/mL
concentration in F57 vehicle ([6]; 4 wk): 2970 µg/mL
concentration in F57 vehicle ([6]; 1 day): 3000 µg/mL
concentration in F57 vehicle ([6]; 2 day): 2940 µg/mL
strength dissolved into F57 vehicle [6]: 3.00 mg/mL
concentration on storage [6]: remained the same
concentration in F57 vehicle ([7]; 1 wk): 1630 µg/mL
concentration in F57 vehicle ([7]; 4 wk): 1660 µg/mL
concentration in F57 vehicle ([7]; 1 day): 750 µg/mL
concentration in F57 vehicle ([7]; 2 day): 1140 µg/mL
concentration in F57 vehicle ([8]; 2-8° C., 7 wk): 1800 µg/mL
concentration in F57 vehicle ([8]; 25° C., 1 wk): 2150 µg/mL
concentration in F57 vehicle ([8]; 25° C., 4 wk): 2040 µg/mL
concentration in F57 vehicle ([8]; 25° C., 1 day): 1300 µg/mL
concentration in F57 vehicle ([8]; 25° C., 2 day): 1730 µg/mL
solubility ([8]; bottom-up, F57 vehicle, 2-8° C., in 7 weeks): 1800 µg/mL (≈ 4.27 mM)
Compound: Cc1cccc(F)c1C(=O)Nc1cnc(-c2cc3c(cc2Cl)OC(F)(F)O3)cn1 [Form B, N-(5-(6-chloro-2,2-difluorobenzo[d][1,3]dioxol-5-yl)pyrazin-2-yl)-2-fluoro-6-methylbenzamide]

hygroscopicity ([9]; DVS isotherm plot): not hygroscopic
water uptake level ([9]; DVS isotherm, at 80% RH): < 0.03%
solubility ([10]; organic solvent or mixture, thermodynamic from solid, 1,4-Dioxane, read-out: Solubility): > 24000 µg/mL
solubility ([10]; organic solvent or mixture, thermodynamic from solid, 2-MeTHF, read-out: Solubility): > 26000 µg/mL
solubility ([10]; organic solvent or mixture, thermodynamic from solid, Acetic acid, read-out: Solubility): > 22000 µg/mL
solubility ([10]; organic solvent or mixture, thermodynamic from solid, Acetone, read-out: Solubility): > 22000 µg/mL
solubility ([10]; organic solvent or mixture, thermodynamic from solid, Acetonitrile, read-out: Solubility): > 22000 µg/mL
solubility ([10]; organic solvent or mixture, thermodynamic from solid, DCM, read-out: Solubility): > 22000 µg/mL
solubility ([10]; organic solvent or mixture, thermodynamic from solid, DMAc, read-out: Solubility): > 22000 µg/mL
solubility ([10]; organic solvent or mixture, thermodynamic from solid, DMSO, read-out: Solubility): > 20000 µg/mL
solubility ([10]; organic solvent or mixture, thermodynamic from solid, EtOAc, read-out: Solubility): > 22000 µg/mL
solubility ([10]; organic solvent or mixture, thermodynamic from solid, Heptane, read-out: Solubility): < 1300 µg/mL
solubility ([10]; organic solvent or mixture, thermodynamic from solid, IPAc, read-out: Solubility): > 24000 µg/mL
solubility ([10]; organic solvent or mixture, thermodynamic from solid, MIBK, read-out: Solubility): > 22000 µg/mL
solubility ([10]; organic solvent or mixture, thermodynamic from solid, MTBE, read-out: Solubility): > 18000 µg/mL
solubility ([10]; organic solvent or mixture, thermodynamic from solid, MeOH, read-out: Solubility): > 18000 µg/mL
solubility ([10]; organic solvent or mixture, thermodynamic from solid, NMP, read-out: Solubility): > 26000 µg/mL
solubility ([10]; organic solvent or mixture, thermodynamic from solid, THF, read-out: Solubility): > 20000 µg/mL
solubility ([10]; organic solvent or mixture, thermodynamic from solid, Toluene, read-out: Solubility): > 22000 µg/mL
solubility ([10]; organic solvent or mixture, thermodynamic from solid, in Heptane and H2O, read-out: solubility (insoluble)): < 1300 µg/mL
solubility ([10]; organic solvent or mixture, thermodynamic from solid, in MeOH, Acetic acid, Acetonitrile, Acetone, MIBK, EtOAc, IPAc, MTBE, THF, 2-MeTHF, 1,4-Dioxane, NMP, DMSO, DCM, Toluene and DMAc, read-out: solubility (soluble)): > 18000 µg/mL
solubility ([10]; water, thermodynamic from solid, H2O, read-out: Solubility): < 1000 µg/mL
concentration in F57 vehicle ([6]; 1 wk): 2680 µg/mL
concentration in F57 vehicle ([6]; 4 wk): 2640 µg/mL
concentration in F57 vehicle ([6]; 1 day): 2690 µg/mL
concentration in F57 vehicle ([6]; 2 day): 2650 µg/mL
strength dissolved into F57 vehicle [6]: 2.69 mg/mL
concentration on storage [6]: remained the same
concentration in F57 vehicle ([7]; 1 wk): 1700 µg/mL
concentration in F57 vehicle ([7]; 4 wk): 1710 µg/mL
concentration in F57 vehicle ([7]; 1 day): 1200 µg/mL
concentration in F57 vehicle ([7]; 2 day): 1530 µg/mL
dissolution rate ([7]; bottom-up, emulsion vehicle): faster dissolution rate
solubility ([5]; F57 emulsion, 2 °C, thermodynamic from solid, 2-8° C., all methods, read-out: solubility in F57): 1800 to 1900 µg/mL (≈ 4.27 to 4.5 mM)
solubility at 7 weeks ([8]; F57 emulsion vehicle, thermodynamic from solid, bottom-up, F57 vehicle, 2-8° C., in 7 weeks): 1800 µg/mL (≈ 4.27 mM)
concentration in F57 vehicle ([8]; 2-8° C., 7 wk): 1850 µg/mL
concentration in F57 vehicle ([8]; 25° C., 1 wk): 2190 µg/mL
concentration in F57 vehicle ([8]; 25° C., 4 wk): 2170 µg/mL
concentration in F57 vehicle ([8]; 25° C., 1 day): 2180 µg/mL
concentration in F57 vehicle ([8]; 25° C., 2 day): 2240 µg/mL
Compound: Cc1cccc(F)c1C(=O)Nc1cnc(-c2cc3c(cc2Cl)OC(F)(F)O3)cn1 [Form A, N-(5-(6-chloro-2,2-difluorobenzo[d][1,3]dioxol-5-yl)pyrazin-2-yl)-2-fluoro-6-methylbenzamide]
